Test results as given in patent US9096608B2, “Pharmaceutically active pyrazolo-triazine derivatives” (LEAD DISCOVERY CENTER GMBH, priority 2012, dated 2015).

Assays:
Type in all cases: biochemical
[1] = target: T1, CDK7/CycH/Mat1 (Homo sapiens, UniProt P50613); experiment: CDK7 Enzymatic Activity Assay (Lance Kinase Activity Assay, FRET); conditions: Table 5A; 25 μM ATP final; read-out: CDK7: IC50 [mM] for CDK7 inhibition (the above defined ranges apply)
T1 construct: purchased Carna
In short: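 TR-FRET (LANCE) kinase assay with ULight-MBP peptide substrate and Eu-labelled anti-phospho antibody; compounds in 8-point 1:3 series in HEPES 50 mM pH 7.5, MgCl2 10 mM, EGTA 1 mM, DTT 2 mM, 0.01% Tween-20.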

[2] = target: T2, CDK2/CycA (Homo sapiens, UniProt P24941); experiment: CDK2 Enzymatic Activity Assay (Lance Kinase Activity Assay, FRET); conditions: Table 5B; symbols per IC50 ranges of b615
T2 construct: purchased Proqinase
In short: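 Compounds serially diluted 1:3 over 8 steps, run with CDK2/CycA, ULight-MBP substrate and ATP in HEPES pH 7.5 buffer for 1 h at room temperature. LANCE TR-FRET detection with Eu-anti-phospho-MBP after EDTA stop; IC50 from sigmoidal dose-response curves.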

[3] = target: T3, CDK9/Cyclin T1 (Homo sapiens, UniProt P50750); experiment: CDK9 Enzymatic Activity Assay (Lance Kinase Activity Assay, FRET); conditions: Table 5B; symbols per IC50 ranges of b615
T3 construct: purchased Invitrogen
In short: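 TR-FRET detection of ULight-MBP substrate phosphorylation by CDK9/cyclin T1 using a Eu-anti-phospho-MBP antibody, in 50 mM HEPES pH 7.5, 10 mM MgCl2, 1 mM EGTA, 2 mM DTT, 0.01% Tween-20. Kinase reaction 1 h at room temperature, then EDTA detection buffer for 1 h before reading.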

T1 sequence (P50613 whole entry): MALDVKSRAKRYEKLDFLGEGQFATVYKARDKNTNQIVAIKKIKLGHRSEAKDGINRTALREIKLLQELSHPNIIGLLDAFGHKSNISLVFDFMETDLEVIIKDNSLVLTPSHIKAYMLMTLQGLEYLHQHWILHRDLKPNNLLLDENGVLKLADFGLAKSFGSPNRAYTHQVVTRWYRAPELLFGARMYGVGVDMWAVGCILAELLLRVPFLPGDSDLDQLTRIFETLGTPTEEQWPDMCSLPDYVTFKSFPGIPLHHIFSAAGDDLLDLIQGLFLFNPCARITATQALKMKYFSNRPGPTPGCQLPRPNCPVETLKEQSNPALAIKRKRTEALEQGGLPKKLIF
T1 sequence (P51946 whole entry partner): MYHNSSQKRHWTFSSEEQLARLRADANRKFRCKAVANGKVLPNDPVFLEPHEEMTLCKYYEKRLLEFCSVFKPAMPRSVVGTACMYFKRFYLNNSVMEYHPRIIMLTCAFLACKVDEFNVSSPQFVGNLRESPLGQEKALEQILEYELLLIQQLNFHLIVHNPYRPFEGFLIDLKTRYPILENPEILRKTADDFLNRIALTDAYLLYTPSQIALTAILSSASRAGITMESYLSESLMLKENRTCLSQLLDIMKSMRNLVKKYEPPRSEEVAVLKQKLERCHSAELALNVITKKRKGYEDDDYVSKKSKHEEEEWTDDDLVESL
T1 sequence (P51948 whole entry partner): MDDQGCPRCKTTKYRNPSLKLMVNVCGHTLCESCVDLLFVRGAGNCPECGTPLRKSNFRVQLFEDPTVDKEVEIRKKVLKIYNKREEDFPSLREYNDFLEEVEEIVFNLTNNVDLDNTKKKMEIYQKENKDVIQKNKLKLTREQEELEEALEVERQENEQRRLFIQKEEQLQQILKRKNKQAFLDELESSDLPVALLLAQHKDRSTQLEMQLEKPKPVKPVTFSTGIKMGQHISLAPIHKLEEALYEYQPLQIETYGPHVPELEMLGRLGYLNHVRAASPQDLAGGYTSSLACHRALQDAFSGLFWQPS
T3 sequence (P50750 whole entry): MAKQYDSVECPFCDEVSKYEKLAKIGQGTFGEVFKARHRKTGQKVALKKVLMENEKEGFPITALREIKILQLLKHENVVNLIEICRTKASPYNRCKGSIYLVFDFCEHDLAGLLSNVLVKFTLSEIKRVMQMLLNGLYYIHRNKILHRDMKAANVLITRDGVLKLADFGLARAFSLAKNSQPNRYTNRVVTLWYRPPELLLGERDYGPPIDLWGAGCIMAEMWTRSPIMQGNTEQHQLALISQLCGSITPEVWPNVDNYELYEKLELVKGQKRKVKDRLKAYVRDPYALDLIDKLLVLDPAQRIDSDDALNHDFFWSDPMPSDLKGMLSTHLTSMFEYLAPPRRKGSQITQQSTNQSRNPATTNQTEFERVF
T3 sequence (O60563 whole entry partner): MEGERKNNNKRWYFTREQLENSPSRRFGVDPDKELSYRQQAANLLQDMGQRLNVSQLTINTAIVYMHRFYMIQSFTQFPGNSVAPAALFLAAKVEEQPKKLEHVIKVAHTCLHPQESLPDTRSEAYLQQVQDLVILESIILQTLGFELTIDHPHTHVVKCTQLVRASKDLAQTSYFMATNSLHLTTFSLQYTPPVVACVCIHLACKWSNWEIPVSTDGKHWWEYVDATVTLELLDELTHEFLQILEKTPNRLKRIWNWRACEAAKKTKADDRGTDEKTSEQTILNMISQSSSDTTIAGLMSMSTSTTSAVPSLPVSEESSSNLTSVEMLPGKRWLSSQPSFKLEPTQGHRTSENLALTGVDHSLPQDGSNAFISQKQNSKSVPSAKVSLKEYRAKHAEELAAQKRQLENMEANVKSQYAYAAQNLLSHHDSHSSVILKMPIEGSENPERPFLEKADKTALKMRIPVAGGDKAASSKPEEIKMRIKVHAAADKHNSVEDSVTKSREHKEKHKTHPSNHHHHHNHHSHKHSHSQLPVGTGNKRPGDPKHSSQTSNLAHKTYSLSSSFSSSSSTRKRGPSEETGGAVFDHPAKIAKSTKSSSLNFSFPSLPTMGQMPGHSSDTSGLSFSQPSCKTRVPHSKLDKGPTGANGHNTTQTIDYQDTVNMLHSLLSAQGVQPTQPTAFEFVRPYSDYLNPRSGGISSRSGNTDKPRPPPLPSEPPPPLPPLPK

SMILES | IC50 [1] [nM] | CDK2 IC50 range class [2] | CDK9: Selectivity of CDK7 inhibition over CDK9 inhibition [fold] [3]
COc1cccc([C@H](C)Nc2nc(SC3CCNCC3)nc3c(C(C)C)cnn23)c1 [(X-e), (S)-8-isopropyl-N-(1-(3-methoxyphenyl)ethyl)-2-(piperidin-4-ylthio)pyrazolo[1,5-a][1,3,5]triazin-4-amine] | > 100 | +++ (IC50>2500 nM) | +++ (IC50>2500 nM)
COc1cccc([C@H](C)Nc2nc(S(=O)(=O)C3CCNCC3)nc3c(C(C)C)cnn23)c1 [(X-f), (S)-8-isopropyl-N-(1-(3-methoxyphenyl)ethyl)-2-(piperidin-4-ylsulfonyl)pyrazolo[1,5-a][1,3,5]triazin-4-amine] | 10 to 30 | +++ (IC50>2500 nM) | +++ (IC50>2500 nM)
COc1cccc([C@H](C)Nc2nc(CN3CCNCC3)nc3c(C(C)C)cnn23)c1 [(XXIX-1), (S)-8-isopropyl-N-(1-(3-methoxyphenyl)ethyl)-2-(piperazin-1-ylmethyl)pyrazolo[1,5-a][1,3,5]triazin-4-amine] | > 100 | +++ (IC50>2500 nM) | +++ (IC50>2500 nM)
COc1cccc([C@H](C)Nc2nc(CNCCN)nc3c(C(C)C)cnn23)c1 [(XXIX-2), (S)-N1-((8-isopropyl-4-((1-(3-methoxyphenyl)ethyl)amino)pyrazolo[1,5-a][1,3,5]triazin-2-yl)methyl)ethane-1.2-diamine] | > 100 | +++ (IC50>2500 nM) | +++ (IC50>2500 nM)
COc1cccc([C@H](C)Nc2nc(CN(C)CC3CNC3)nc3c(C(C)C)cnn23)c1 [(XXIX-3), (S)-2-(((azetidin-3-ylmethyl)(methyl)amino)methyl)-8-isopropyl-N-(1-(3-methoxyphenyl)ethyl)pyrazolo[1,5-a][1,3,5]triazin-4-amine] | > 100 | +++ (IC50>2500 nM) | +++ (IC50>2500 nM)
COc1cccc([C@H](C)Nc2nc(CNC3CCNC3)nc3c(C(C)C)cnn23)c1 (stereo partly drawn) [(XXIX-4), 8-isopropyl-N-((S)-1-(3-methoxyphenyl)ethyl)-2-((pyrrolidin-3-ylamino)methyl)pyrazolo[1,5-a][1,3,5]triazin-4-amine] | 30 to 100 | +++ (IC50>2500 nM) | +++ (IC50>2500 nM)
COc1cccc([C@H](C)Nc2nc(CNCCCN3CCOCC3)nc3c(C(C)C)cnn23)c1 [(XXIX-5), (S)-8-isopropyl-N-(1-(3-methoxyphenyl)ethyl)-2-(((3-morpholinopropyl)amino)methyl)pyrazolo[1,5-a][1,3,5]triazin-4-amine] | > 100 | +++ (IC50>2500 nM) | +++ (IC50>2500 nM)
COc1cccc([C@H](C)Nc2nc(CN(C)CCN3CCCC3)nc3c(C(C)C)cnn23)c1 [(XXIX-6), (S)-8-isopropyl-N-(1-(3-methoxyphenyl)ethyl)-2-((methyl(2-(pyrrolidin-1-yl)ethyl)amino)methyl)pyrazolo[1,5-a][1,3,5]triazin-4-amine] | > 100 | +++ (IC50>2500 nM) | +++ (IC50>2500 nM)
COc1cccc([C@H](C)Nc2nc(CNCCN3CCOCC3)nc3c(C(C)C)cnn23)c1 [(XXIX-7), (S)-8-isopropyl-N-(1-(3-methoxyphenyl)ethyl)-2-(((2-morpholinoethyl)amino)methyl)pyrazolo[1,5-a][1,3,5]triazin-4-amine] | > 100 | +++ (IC50>2500 nM) | +++ (IC50>2500 nM)
COc1cccc([C@H](C)Nc2nc(CN(C)CCCN3CCCCC3)nc3c(C(C)C)cnn23)c1 [(XXIX-8), (S)-8-isopropyl-N-(1-(3-methoxyphenyl)ethyl)-2-((methyl(3-(piperidin-1-yl)propyl)amino)methyl)pyrazolo[1,5-a][1,3,5]triazin-4-amine] | > 100 | +++ (IC50>2500 nM) | +++ (IC50>2500 nM)
COc1cccc([C@H](C)Nc2nc(CN3CC(N4CCC(F)(F)C4)C3)nc3c(C(C)C)cnn23)c1 [(XXIX-9), (S)-2-((3-(3,3-difluoropyrrolidin-1-yl)azetidin-1-yl)methyl)-8-isopropyl-N-(1-(3-methoxyphenyl)ethyl)pyrazolo[1,5-a][1,3,5]triazin-4-amine] | > 100 | +++ (IC50>2500 nM) | +++ (IC50>2500 nM)
COc1cccc([C@H](C)Nc2nc(CN3CC(N4CCCC4=O)C3)nc3c(C(C)C)cnn23)c1 [(XXIX-10), (S)-1-(1-((8-isopropyl-4-((1-(3-methoxyphenyl)ethyl)amino)pyrazolo[1,5-a][1,3,5]triazin-2-yl)methyl)azetidin-3-yl)pyrrolidin-2-one] | > 100 | +++ (IC50>2500 nM) | +++ (IC50>2500 nM)
COCCN1CCN(Cc2nc(N[C@@H](C)c3cccc(OC)c3)n3ncc(C(C)C)c3n2)CC1 [(XXIX-11), (S)-8-isopropyl-2-((4-(2-methoxyethyl)piperazin-1-yl)methyl)-N-(1-(3-methoxyphenyl)ethyl)pyrazolo[1,5-a][1,3,5]triazin-4-amine] | > 100 | +++ (IC50>2500 nM) | +++ (IC50>2500 nM)
COc1cccc([C@H](C)Nc2nc(C(=O)N3CC4(CNC4)C3)nc3c(C(C)C)cnn23)c1 [(XXVI-1), (S)-(8-isopropyl-4-((1-(3-methoxyphenyl)ethyl)amino)pyrazolo[1,5-a][1,3,5]triazin-2-yl)(2,6-diazaspiro[3.3]heptan-2-yl)methanone] | > 100 | +++ (IC50>2500 nM) | +++ (IC50>2500 nM)
COc1cccc([C@H](C)Nc2nc(C(=O)N(C)CCN3CCOCC3)nc3c(C(C)C)cnn23)c1 [(XXVI-2), (S)-8-isopropyl-4-((1-(3-methoxyphenyl)ethyl)amino)-N-methyl-N-(2-morpholinoethyl)pyrazolo[1,5-a][1,3,5]triazine-2-carboxamide] | > 100 | +++ (IC50>2500 nM) | +++ (IC50>2500 nM)
COc1cccc([C@H](C)Nc2nc(C(=O)N(C)CCN3CCCC3)nc3c(C(C)C)cnn23)c1 [(XXVI-3), (S)-8-isopropyl-4-((1-(3-methoxyphenyl)ethyl)amino)-N-methyl-N-(2-(pyrrolidin-1-yl)ethyl)pyrazolo[1,5-a][1,3,5]triazine-2-carboxamide] | > 100 | +++ (IC50>2500 nM) | +++ (IC50>2500 nM)
COc1cccc([C@H](C)Nc2nc(C(=O)N3CCNCC3)nc3c(C(C)C)cnn23)c1 [(XXVI-4), (S)-(8-isopropyl-4-((1-(3-methoxyphenyl)ethyl)amino)pyrazolo[1,5-a][1,3,5]triazin-2-yl)(piperazin-1-yl)methanone] | > 100 | +++ (IC50>2500 nM) | +++ (IC50>2500 nM)
COc1cccc([C@H](C)Nc2nc(C(=O)NCCCN)nc3c(C(C)C)cnn23)c1 [(XXVI-5), (S)-N-(3-aminopropyl)-8-isopropyl-4-((1-(3-methoxyphenyl)ethyl)amino)pyrazolo[1,5-a][1,3,5]triazine-2-carboxamide] | > 100 | +++ (IC50>2500 nM) | +++ (IC50>2500 nM)
